Measurements: patent USRE35593E (priority 1989, dated 1997)
Where a name gives a salt, the structure may show the parent alone. Read-outs that look alike come from different tables or passages of the source.

Experiments:
[1] = target: muscarinic receptors; experiment: Radio ligand binding: displacement of muscarinic agonist 3H-OXO-M (3H-Oxotremorine-M), rat cerebral cortex membranes; design: species or system Hooded Lister rats; conditions: 2 nM 3H-OXO-M, 2 mM magnesium chloride, 37° C., 30 min, pH 7.7, non-specific: 10 μM Oxotremorine
[2] = target: muscarinic receptors; format: binding, Hooded Lister rats; conditions: 0.27 nM 3H-QNB; rat cerebral cortex; 37° C., 30 min; pH 7.7; non-specific: 1 μM Atropine sulphate

Row | SMILES | IC50 [1] | IC50 [2]
1 | CON=C(Cl)C1CN2CCC1CC2 (racemic) [Example E1, (±) 1-Azabicyclo[2.2.2]oct-3-yl-N-methoxycarboximidoyl chloride oxalate salt] | 0.093 µM | 0.897 µM
2 | CON=C(OC)C1CN2CCC1CC2 (racemic) [Example E2, (±) 1-Azabicyclo2.2.2]oct-3-yl-N-methoxycarboximidic acid methyl ester oxidate salt] | 1 µM | 8 µM
3 | C#CC(=NOC)C12CCCN(CC1)C2 (racemic) [Example E4, (±) 1-Azabicyclo[3.2.1]oct-5-yl ethynyl ketone O-methyloxime oxalate salt] | 0.162 µM | 1.46 µM
4 | CON=C(Cl)C12CCCN(CC1)C2 (racemic) [Example E5, (±) 1-Azabicyclo[3.2.1]oct-5-yl-N-methoxycarboximidoyl chloride oxalate salt] | 0.072 µM | 3.82 µM
5 | CON=C(C#N)C12CCCN(CC1)C2 (racemic) [Example E6, (±) α-(Methoxyimino)-α-(1-azabicyclo[3.2.1]oct-5-yl) acetonitrile hydrochloride salt] | 0.114 µM | 0.251 µM
6 | CON=C(Br)C12CCCN(CC1)C2 (racemic) [Example E7, (±) 1-Azabicyclo[3.2. ]oct-5-yl-N-methoxycarboximidonyl bromide oxalate salt] | 0.19 µM | 2.85 µM
7 | CON=C(F)C1CN2CCC1CC2 (racemic) [Example E10, (±) 1-Azabicyclo[2.2.2]oct-3-yl-N-methoxycarboximidoyl fluoride oxalate salt] | 0.034 µM | 2.11 µM
8 | CON=C(C1CC1)C1CN2CCC1CC2 (racemic) [Example E15, (±) 1-Azabicyclo[2.2.2]oct-3-yl cyclopropyl ketone trans-O-methyloxime hydrochloride salt] | 0.386 µM | 22.2 µM
9 | CON=C(Cl)[C@H]1CN2CC[C@H]1C2 (relative stereo) [Example E8, (±) exo-1-Azabicyclo[2.2.1]hept-3-yl-N-methoxycarboximidoyl chloride oxalate salt] | 0.064 µM | 3.33 µM
10 | CON=C(C#N)[C@H]1CN2CC[C@H]1C2 (relative stereo) [Example E9, (±) exo-α-(Methoxyimino)-α-(1-azabicyclo[2.2.1]hept-3-yl)acetonitrile hydrochloride salt] | 0.025 µM | 2.1 µM
11 | CON=C(Cl)[C@@H]1CN2CC[C@H]1C2 (relative stereo) [Example E16, (±) endo-1-Azabicyclo[2.2.1]hept-3-yl -N-methoxycarboximidoyl chloride oxalate salt] | 0.099 µM | 7 µM
12 | CON=C(C#N)[C@@H]1CN2CC[C@H]1C2 (relative stereo) [Example E17, (±) endo-α-(Methoxyimino)-α-(1-azabicyclo[2.2.1]hept-3-yl)acetonitrile oxalate salt] | 0.016 µM | 3.6 µM
13 | CON=C(Br)[C@H]1CN2CC[C@H]1C2 (relative stereo) [Example E18, (±) exo- and endo-1-Azabicyclo[2.2.1]hept-3-yl-N-methoxycarboximidoyl bromide oxalate salts] | 0.046 µM | 11 µM
14 | CON=C(Br)[C@@H]1CN2CC[C@H]1C2 (relative stereo) [Example E19, (±) exo- and endo-1-Azabicyclo[2.2.1]hept-3-yl-N-methoxycarboximidoyl bromide oxalate salts] | 0.127 µM | 3.6 µM
15 | CON=C(F)[C@H]1CN2CC[C@H]1C2 (relative stereo) [Example E20, (±) exo-1-Azabicyclo[2.2.1]hept-3-yl-N-methoxy carboximidoyl fluoride oxalate salt] | 0.011 µM | 3 µM
16 | CCON=C(Cl)[C@H]1CN2CC[C@H]1C2 (relative stereo) [Example E21, (±) exo-1-Azabicyclo[2.2.1]hept-3-yl-N-ethoxy carboximidoyl chloride oxalate salt] | 0.57 µM | 15.5 µM
17 | CCON=C(C#N)[C@H]1CN2CC[C@H]1C2 (relative stereo) [Example E22, (±) exo-α-(Ethoxyimino)-α-(1-azabicyclo[2.2. 1]hept-3-yl)acetonitrile oxalate salt] | 0.233 µM | 10 µM
18 | C#CCON=C(Cl)[C@H]1CN2CC[C@H]1C2 (relative stereo) [Example E24, (±) exo- and endo-1-Azabicyclo[2.2.1]hept-3-yl-N-prop-2-ynyloxycarboximidoyl chloride oxalate salts] | 0.112 µM | 2.1 µM
19 | CON=C(CC#N)[C@H]1CN2CC[C@H]1C2 (relative stereo) [Example E27, (±) exo- and endo-3-Oxo-3-(1-azabicyclo[2.2.1]hept-3-yl)propionitrile-O-methyl oxime oxalate salts] | 0.071 µM | 1.1 µM
20 | CON=C(CC#N)[C@@H]1CN2CC[C@H]1C2 (relative stereo) [Example E28, (±) exo- and endo-3-Oxo-3-(1-azabicyclo[2.2.1]hept-3-yl)propionitrile-O-methyl oxime oxalate salts] | 0.75 µM | 16.5 µM
21 | CON=C(Cl)C12CCN(CC1)C2 [Example E11, 1-Azabicyclo[2.2.1]hept-4-yl-N-methoxycarboximidoyl chloride oxalate salt] | 0.038 µM | 9 µM
22 | CON=C(C#N)C12CCN(CC1)C2 [Example E12, α-(Methoxyimino)-α-(1-azabicyclo[2.2.1]hept-4-syl)acetonitrilehydrochloride salt] | 0.021 µM | 2 µM
23 | CON=C(Br)C12CCN(CC1)C2 [Example E13, 1-Azabicyclo[2.2.1]hept-4-yl-N-methoxycarboximidoyl bromide oxalate salt] | 0.17 µM | 10 µM
24 | CON=C(F)C12CCN(CC1)C2 [Example E14, 1-Azabicyclo[2.2.1]hept-4-yl-N-methoxycarboximidoyl fluoride oxalate salt] | 0.048 µM | 15.5 µM
